Test results: patent publication US20060276464A1, “Diarylsulfone sulfonamides and use thereof” (Wyeth, priority 2005, published 2006)
Like-named read-outs stand apart in the source and are kept apart here.

Target: T1, SFRP-1 (Homo sapiens, UniProt Q8N474)
T1 sequence (Q8N474 32-314): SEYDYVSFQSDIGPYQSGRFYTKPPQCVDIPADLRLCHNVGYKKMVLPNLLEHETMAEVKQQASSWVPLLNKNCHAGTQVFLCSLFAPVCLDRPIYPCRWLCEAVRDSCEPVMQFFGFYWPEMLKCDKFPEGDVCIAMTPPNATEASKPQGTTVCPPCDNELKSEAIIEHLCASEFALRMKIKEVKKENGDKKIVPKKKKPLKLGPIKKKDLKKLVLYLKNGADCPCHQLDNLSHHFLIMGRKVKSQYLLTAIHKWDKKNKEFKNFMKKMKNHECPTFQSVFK
Assay: Cell-based assay for in vitro measurement of SFRP-1/SARP2 antagonist activity (U2OS cells co-transfected with 16x TCF-tk-Luciferase reporter, Wnt and hSFRP-1);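 note: U2OS cells co-transfected with a TCF-tk luciferase reporter, a Wnt vector, hSFRP-1 or empty vector and CMV-βgal, luciferase luminescence read in cell lysates alongside βgal activity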
Conditions: for fold induction at 15 µM / fold induction at 30 µM: U2OS; for Fold Induction with SFRP-1 / Fold Induction without SFRP-1: Conc 15 μM

[1] = read-out: Fold Induction with SFRP-1, Conc 15 μM, with SFRP-1, fold induction over SFRP-1 control, single dose
[2] = read-out: Fold Induction without SFRP-1, Conc 15 μM, without SFRP-1, single dose
[3] = with SFRP-1, fold induction over SFRP-1 control, single dose
[4] = read-out: Fold Induction with SFRP-1, Conc 30 μM, with SFRP-1, fold induction over SFRP-1 control, single dose
[5] = read-out: Fold Induction without SFRP-1, Conc 30 μM, without SFRP-1, single dose

fold induction at 15 µM [1] | fold induction at 15 µM [2] | Fold Induction with SFRP-1 [3] [fold] | Fold Induction without SFRP-1 (without SFRP-1, single dose) [fold] | fold induction at 30 µM [4] | fold induction at 30 µM [5] | Compound
3.1 | 1.1 |  |  |  |  | CCOc1ccc(CCNS(=O)(=O)c2cc(S(=O)(=O)c3ccccc3)ccc2CC)cc1OC [Example 149, N-[2-(4-ethoxy-3-methoxyphenyl)ethyl]-2-ethyl-5-(phenylsulfonyl)benzenesulfonamide]
1.5 | 1.2 |  |  |  |  | COc1ccc(S(=O)(=O)c2ccccc2)cc1S(=O)(=O)NCCc1ccccc1 [Example 150, 2-methoxy-N-(2-phenylethyl)-5-(phenylsulfonyl)benzenesulfonamide]
1.4 | 1.1 |  |  |  |  | COc1ccccc1CCNS(=O)(=O)c1cc(S(=O)(=O)c2ccccc2)ccc1OC [Example 151, 2-methoxy-N-[2-(2-methoxyphenyl)ethyl]-5-(phenylsulfonyl)benzenesulfonamide]
1.6 | 1.1 |  |  |  |  | COc1cccc(CCNS(=O)(=O)c2cc(S(=O)(=O)c3ccccc3)ccc2OC)c1 [Example 152, 2-methoxy-N-[2-(3-methoxyphenyl)ethyl]-5-(phenylsulfonyl)benzenesulfonamide]
1.5 | 1.1 |  |  |  |  | COc1ccc(CCNS(=O)(=O)c2cc(S(=O)(=O)c3ccccc3)ccc2OC)cc1OC [Example 153, N-[2-(3,4-dimethoxyphenyl)ethyl]-2-methoxy-5-(phenylsulfonyl)benzenesulfonamide]
1.4 | 1.3 |  |  |  |  | COc1ccc(S(=O)(=O)c2ccccc2)cc1S(=O)(=O)NCCc1ccc(S(N)(=O)=O)cc1 [Example 154, N-{2-[4-(aminosulfonyl)phenyl]ethyl}-2-methoxy-5-(phenylsulfonyl)benzenesulfonamide]
1.5 | 1.2 |  |  |  |  | COc1ccc(S(=O)(=O)c2ccccc2)cc1S(=O)(=O)NCCc1cccc(F)c1 [Example 155, N-[2-(3-fluorophenyl)ethyl]-2-methoxy-5-(phenylsulfonyl)benzenesulfonamide]
1.4 | 1.4 |  |  |  |  | COc1ccc(S(=O)(=O)c2ccccc2)cc1S(=O)(=O)NCCc1ccccc1F [Example 156, N-[2-(2-fluorophenyl)ethyl]-2-methoxy-5-(phenylsulfonyl)benzenesulfonamide]
1.5 | 1.2 |  |  |  |  | CCOc1cc(CCNS(=O)(=O)c2cc(S(=O)(=O)c3ccccc3)ccc2OC)ccc1OC [Example 157, N-[2-(3-ethoxy-4-methoxyphenyl)ethyl]-2-methoxy-5-(phenylsulfonyl)benzenesulfonamide]
1.4 | 1.1 |  |  |  |  | CCOc1ccc(CCNS(=O)(=O)c2cc(S(=O)(=O)c3ccccc3)ccc2OC)cc1OC [Example 158, N-[2-(4-ethoxy-3-methoxyphenyl)ethyl]-2-methoxy-5-(phenylsulfonyl)benzenesulfonamide]
1.8 | 0.9 |  |  |  |  | Cc1ccc(S(=O)(=O)c2ccc(F)cc2)cc1S(=O)(=O)NCCC(N)=O [Example 159, N^3-({5-[(4-fluorophenyl)sulfonyl]-2-methylphenyl}sulfonyl)-beta-alaninamide]
2.4 | 0.9 |  |  |  |  | COC(=O)CCNS(=O)(=O)c1cc(S(=O)(=O)c2ccc(F)cc2)ccc1C [Example 160, methyl N-({5-[(4-fluorophenyl)sulfonyl]-2-methylphenyl}sulfonyl)-beta-alaninate]
2.7 | 1 |  |  |  |  | Cc1ccc(S(=O)(=O)c2ccc(F)cc2)cc1S(=O)(=O)NCCC#N [Example 161, N-(2-cyanoethyl)-5-[(4-fluorophenyl)sulfonyl]-2-methylbenzenesulfonamide]
2.7 | 0.8 | 2.5 | 1 |  |  | Cc1ccc(S(=O)(=O)c2ccc(F)cc2)cc1S(=O)(=O)NCCc1ccccn1 [Example 162, 5-[(4-fluorophenyl)sulfonyl]-2-methyl-N-(2-pyridin-2-ylethyl)benzenesulfonamide]
2 | 0.9 |  |  |  |  | Cc1ccc(S(=O)(=O)c2ccc(F)cc2)cc1S(=O)(=O)NCCCN1CCOCC1 [Example 163, 5-[(4-fluorophenyl)sulfonyl]-2-methyl-N-(3-morpholin-4-ylpropyl)benzenesulfonamide]
1.9 | 1.1 |  |  |  |  | Cc1ccc(S(=O)(=O)c2ccc(F)cc2)cc1S(=O)(=O)NCCC1CCCN1C (centres unmarked) [Example 164, 5-[(4-fluorophenyl)sulfonyl]-2-methyl-N-[2-(1-methylpyrrolidin-2-yl)ethyl]benzenesulfonamide]

fold induction at 15 µM [1] | fold induction at 15 µM [2] | Fold Induction with SFRP-1 [3] [fold] | Fold Induction without SFRP-1 (without SFRP-1, single dose) [fold] | fold induction at 30 µM [4] | fold induction at 30 µM [5] | Compound
3.3 | 1 |  |  |  |  | Cc1ccc(S(=O)(=O)c2ccc(F)cc2)cc1S(=O)(=O)NCCc1ccncc1 [Example 165, 5-[(4-fluorophenyl)sulfonyl]-2-methyl-N-(2-pyridin-4-ylethyl)benzenesulfonamide]
2 | 1.1 |  |  |  |  | Cc1ccc(S(=O)(=O)c2ccc(F)cc2)cc1S(=O)(=O)NCCN1CCCCC1 [Example 166, 5-[(4-fluorophenyl)sulfonyl]-2-methyl-N-(2-piperidin-1-ylethyl)benzenesulfonamide]
3 | 1 |  |  |  |  | Cc1ccc(S(=O)(=O)c2ccc(F)cc2)cc1S(=O)(=O)NCCc1c[nH]cn1 [Example 167, 5-[(4-fluorophenyl)sulfonyl]-N-[2-(1H-imidazol-4-yl)ethyl]-2-methylbenzenesulfonamide]
1.7 | 0.9 |  |  |  |  | CC(=O)NCCNS(=O)(=O)c1cc(S(=O)(=O)c2ccc(F)cc2)ccc1C [Example 168, N-{2-[({5-[(4-fluorophenyl)sulfonyl]-2-methylphenyl}sulfonyl)amino]ethyl}acetamide]
2.3 | 0.9 |  |  |  |  | Cc1ccc(S(=O)(=O)c2ccc(F)cc2)cc1S(=O)(=O)NCCCN1CCCC1=O [Example 170, 5-[(4-fluorophenyl)sulfonyl]-2-methyl-N-[3-(2-oxopyrrolidin-1-yl)propyl]benzenesulfonamide]
2.2 | 1.2 |  |  |  |  | CCN(CC)CCNS(=O)(=O)c1cc(S(=O)(=O)c2ccc(F)cc2)ccc1C [Example 171, N-[2-(diethylamino)ethyl]-5-[(4-fluorophenyl)sulfonyl]-2-methylbenzenesulfonamide]
1.9 | 1.1 |  |  |  |  | Cc1ccc(S(=O)(=O)c2ccc(F)cc2)cc1S(=O)(=O)NCCN(C)C [Example 172, N-[2-(dimethylamino)ethyl]-5-[(4-fluorophenyl)sulfonyl]-2-methylbenzenesulfonamide]
2.5 | 0.8 | 2 | 1 |  |  | COCCCNS(=O)(=O)c1cc(S(=O)(=O)c2ccc(F)cc2)ccc1C [Example 173, 5-[(4-fluorophenyl)sulfonyl]-N-(3-methoxypropyl)-2-methylbenzenesulfonamide]
2.8 | 1.2 |  |  |  |  | Cc1ccc(S(=O)(=O)c2ccc(F)cc2)cc1S(=O)(=O)NCCCN(C)C [Example 174, N-[3-(dimethylamino)propyl]-5-[(4-fluorophenyl)sulfonyl]-2-methylbenzenesulfonamide]
2.5 | 0.9 |  |  |  |  | COCCNS(=O)(=O)c1cc(S(=O)(=O)c2ccc(F)cc2)ccc1C [Example 175, 5-[(4-fluorophenyl)sulfonyl]-N-(2-methoxyethyl)-2-methylbenzenesulfonamide]
2.6 | 1.3 |  |  |  |  | CCN(CC)CCCNS(=O)(=O)c1cc(S(=O)(=O)c2ccc(F)cc2)ccc1C [Example 176, N-[3-(diethylamino)propyl]-5-[(4-fluorophenyl)sulfonyl]-2-methylbenzenesulfonamide]
2.8 | 1.5 |  |  |  |  | Cc1ccc(S(=O)(=O)c2ccc(F)cc2)cc1S(=O)(=O)NCCCN1CCCC1 [Example 178, 5-[(4-fluorophenyl)sulfonyl]-2-methyl-N-(3-pyrrolidin-1-ylpropyl)benzenesulfonamide]
2 | 1.1 |  |  |  |  | Cc1ccc(S(=O)(=O)c2ccc(F)cc2)cc1S(=O)(=O)NCCCN1CCN(C)CC1 [Example 179, 5-[(4-fluorophenyl)sulfonyl]-2-methyl-N-[3-(4-methylpiperazin-1-yl)propyl]benzenesulfonamide]
1.2 | 1 |  |  |  |  | Cc1ccc(S(=O)(=O)c2ccc(F)cc2)cc1S(=O)(=O)NCCC(=O)O [Example 180, N-({5-[(4-fluorophenyl)sulfonyl]-2-methylphenyl}sulfonyl)-beta-alanine]
 |  |  |  | 0.6 | 1 | NC(=O)CCNS(=O)(=O)c1cccc(S(=O)(=O)c2ccccc2)c1 [Example 181, N^3-{[3-(phenylsulfonyl)phenyl]sulfonyl}-beta-alaninamide]
 |  |  |  | 1 | 1 | COC(=O)CCNS(=O)(=O)c1cccc(S(=O)(=O)c2ccccc2)c1 [Example 182, methyl N-{[3-(phenylsulfonyl)phenyl]sulfonyl}-beta-alaninate]
